Laboratory results reported in patent publication US20240197760A1, “ACTIVATORS OF INTEGRATED STRESS RESPONSE PATHWAY FOR PROTECTION AGAINST FERROPTOSIS” (Burke Neurological Institute, priority 2021, published 2024).

Legend:
rats = conditions: dietary supplementation in rats; cited from earlier work
ATF4 = ATF4 chromatin immunoprecipitation sequencing in primary neurons; assay type: cell-based, mouse; conditions: 10 mM, 6 h
Experimental: ChIP-seq was performed according to the ChIPmentation protocol with minor modifications. In brief, 40 million primary neurons were used for each condition. Cells were fixed in methanol free formaldehyde (1% final concentration) for 10 min at room temperature with slow rotation to allow the cross-linking of chromatin proteins and DNA. Cross-linking was stopped by incubation with 0.125 M glycine for 5 min at room temperature. The cells were washed twice with ice-cold phosphate-buffered saline (PBS) and 2 ml of cell scrapping solution was added cell were scrapped and collected in respective tubes. Tubes with cells were centrifuged at 2800 rpm for 10 min at 4° C. and supernatant was aspirated out. Cell pellets left in the tube were resuspended in 300 μl of 0.25% SDS sonication buffer (10 mM Tris-HCl [pH 8.0], 2 mM EDTA, 0.25% SDS, and protease inhibitor cocktail). The lysates were transferred to 1.5 ml TPX microtubes for sonication (Diagenode, Catalog number: 20190430) and sonicated by Biorupter sonication device (Diagenode) to shear genomic DNA into 200-600 bp fragments. The lysates were centrifuged to remove debris and were then diluted 1:1.5 in equilibration buffer (10 mM Tris-HCl [pH 8.0], 1 mM EDTA, 1.67% Triton X-100, 0.17% sodium deoxycholate, 233 mM NaCl, and protease inhibitor cocktail). […]

primary neurons = assay: High throughput RNA sequencing of primary neurons; assay type: cell-based, mouse
Experimental: Primary cortical neurons were treated with 2-DG (1 mM and 10 mM) for 6 h from three independent cultures and RNA was isolated from each sample using a NucleoSpin RNA II Kit (Clontech, Catalog number-740955-250). For each RNA sample, RNA quality was initially quantified using the RNA Integrity Number (RIN) on an Agilent Bioanalyzer (Agilent Genomics). RNA-sequencing was carried out for the RNAs with by the UCLA Neuroscience Genomics Core. In brief, cDNA was generated using Ovation® RNA-Seq System V2 (NuGEN) followed by the library preparation using Illumina's TruSeq Stranded RNA (100 ng)+RiboZero Gold. The libraries were pooled and sequenced to generate 75 bp paired end reads on HiSeqTM4000 system (Illumina). Minimum of […] reads were obtained. Reads were aligned to the mouse mm10 reference genome using the STAR (ver 2.4.0) spliced read aligner (Dobin et al., 2013). Uniquely aligned read percentage was […](SD). Various quality matrix was generated to use high quality data for the analysis. Read counts for mouse […] genes were generated by HT-seq 0.6.1 (Anders et al., 2015). Genes with at least 5 read events at least half of samples were permitted into the dataset, for a total of 15,787 genes. Raw counts were normalized by trimmed mean of M values (TMM). Differentially expressed genes (DEG) were analyzed using an EdgeR bioconductor R (Robinson et al., 2010). False discovery rate less than 0.1 is used to define differentially expressed genes. Gene Set Enrichment Analysis (GSEA) was performed with gene lists sorted by directional p-Values from differential expression analysis. Raw and processed RNAseq data are deposited to Gene Expression Omnibus (GEO #).

mouse primary neurons = assay: Live-dead cell viability assay (calcein-AM / ethidium homodimer); assay type: cell-based; conditions: 1 mM to 15 mM, 24 h, cultured mouse primary neurons
Bdnf = Bdnf gene expression in mouse brain cortex after intraperitoneal injection; assay type: in vivo

## OC[C@H]1OC(O)C[C@@H](O)[C@@H]1O (stereo partly drawn) [2-DG, (4R,5S,6R)-6-(hydroxymethyl)oxane-2,4,5-triol]
rats
  physiological effects (insulin level, body temperature, blood pressure, heart rate, plasma glucose level, stress adaptation): mimic the physiological effects of calorie restriction
ATF4
  ATF4 binding at Bdnf (ChIP-Seq): selective enrichment of ATF4 close to the transcription start site of Bdnf
  ATF4 binding to other plasticity genes (ChIP-Seq): enhanced binding of ATF4 to several plasticity genes
Primary neurons; 1 mM and 10 mM, 6 h
  genes related to the unfolded protein response: dose dependent increase
Primary neurons; 1 mM or 10 mM, 6 h
  cellular component enrichment analysis: significant enrichment of genes related to endoplasmic reticulum
  gene set enrichment analysis: gene signature related to unfolded protein response (UPR): maximal upregulation
  plasticity gene program in RNA sequencing: upregulation of a broad plasticity gene program
Primary neurons; 2-DG treatment, primary neurons
  mitochondrial gene signature in RNA sequencing: didn't show any significant change
Mouse primary neurons
  toxicity / neuronal cell death in live-dead assay: no toxicity
Bdnf; 10 mg/Kg intraperitoneal injection for 6 h
  Bdnf gene expression in mouse brain cortex: significant increase
Bdnf; intraperitoneal injection at 10 mg/Kg
  driving the adaptive plasticity program: sufficient in driving the adaptive plasticity program
